From patent publication US20240059703A1 (AMGEN INC., priority 2021, published 2024)

Experiments:
[1] = tested on: MIA PaCa-2 (human pancreatic carcinoma) cells; experiment: Cell Viability Assay (CellTiter-Glo), MIA PaCa-2; type: cell-based
Description: Serially-diluted compound or DMSO was added to the cells, and plates were incubated at 37° C., 5% CO2 for 72 h. Cell viability was measured using a CellTiter-Glo® Luminescent Cell Viability Assay kit (Promega) according to the manufacturer's protocol. The luminescence signal of treated samples was normalized to DMSO control, and data were analyzed using a 4-parameter logistic model to calculate IC50 values.

[2] = tested on: A549 (human lung carcinoma) cells; experiment: Cell Viability Assay (CellTiter-Glo), A549; type: cell-based
Method in brief: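 After a 72 h exposure to serial compound dilutions at 37° C, luminescent ATP content was measured with CellTiter-Glo. The cells were A549 or MIA PaCa-2, seeded at 1.67E+04 cells/mL in RPMI 1640 with 10% serum. Signals were normalized to DMSO controls and IC50 fitted with a 4-parameter logistic model.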

KRAS G12C = KRAS G12C (Homo sapiens (Human), UniProt P01116, C118A/G12C); experiment: 2 h coupled exchange assay; type: biochemical; conditions: Avg 2 h Coupled exchange IC50, 2 h compound pre-incubation
Chain of KRAS G12C (P01116 other isoform, or with tags, fused parts or gaps G12C/C118A): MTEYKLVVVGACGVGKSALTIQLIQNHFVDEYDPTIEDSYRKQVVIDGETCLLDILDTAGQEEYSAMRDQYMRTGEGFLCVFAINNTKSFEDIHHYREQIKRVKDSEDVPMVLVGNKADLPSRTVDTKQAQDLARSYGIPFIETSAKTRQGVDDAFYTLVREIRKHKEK
Description: The term “2 h coupled exchange assay” or “20 h coupled exchange assay” as used herein refers to the assay described in the Section entitled “BIOLOGICAL EVALUATION.”

[3] = SOS-mediated nucleotide exchange

Structure (SMILES)	IC50 ([1]; Homo sapiens, MIA PaCa-2, 72 h)	IC50 ([2]; Homo sapiens, A549, 72 h)	IC50 (KRAS G12C; [3])	IC50 (KRAS G12C)	IC50 ([1]; 72 h)	IC50 ([2]; 72 h)
C=CC(=O)N1CC2(CCN(c3nc4c(c(-c5c(C)ccc6[nH]ncc56)c3C#N)COC(C)(C)C4)C2)C1 [Example 13-95, 2-(2-acryloyl-2,6-diazaspiro[3.4]octan-6-yl)-7,7-dimethyl-4-(5-methyl-1H-indazol-4-yl)-7,8-dihydro-5H-pyrano[4,3-b]pyridine-3-carbonitrile]	0.092 µM	> 5 µM	0.034 µM			
C=CC(=O)N1CC2(CCN(c3nc4cc(-c5scnc5C)cnc4c(-c4ccccc4F)c3C#N)C2)C1 [Example 20-15, 4-(2-fluorophenyl)-7-(4-methyl-1,3-thiazol-5-yl)-2-(2-(2-propenoyl)-2,6-diazaspiro[3.4]octan-6-yl)-1,5-naphthyridine-3-carbonitrile]	0.649 µM	> 5 µM		0.116 µM		
C=CC(=O)N1CC2(CCN(c3nc4c(c(-c5c(C)ccc6[nH]ncc56)c3C#N)CC(C3CC3)C4)C2)C1 [Example 13-83, (6R)-6-cyclopropyl-4-(5-methyl-1H-indazol-4-yl)-2-(2-(2-propenoyl)-2,6-diazaspiro[3.4]octan-6-yl)-6,7-dihydro-5H-cyclopenta[b]pyridine-3-carbonitrile|(6S)-6-cyclopropyl-4-(5-methyl-1H-indazol-4-yl)-2-(2-(2-propenoyl)-2,6-diazaspiro[3.4]octan-6-yl)-6,7-dihydro-5H-cyclopenta[b]pyridine-3-carbonitrile]	> 5 µM	> 5 µM	0.086 µM			
C=CC(=O)N1CC2(CCN(c3nc4c(c(-c5ccccc5F)c3C#N)CCC(c3scnc3COC)=C4)C2)C1 [Example 23-52, 4-(2-fluorophenyl)-7-(4-(methoxymethyl)-1,3-thiazol-5-yl)-2-(2-(2-propenoyl)-2,6-diazaspiro[3.4]octan-6-yl)-5,6-dihydro-3-quinolinecarbonitrile]	0.779 µM	3.41 µM		0.109 µM		
C=CC(=O)N1CC2(CCN(c3nc4c(c(-c5cc(O)cc6ccccc56)c3C#N)CC(C)(C)C4)C2)C1 [Example 13-65, 4-(3-hydroxy-1-naphthalenyl)-6,6-dimethyl-2-(2-(2-propenoyl)-2,6-diazaspiro[3.4]octan-6-yl)-6,7-dihydro-5H-cyclopenta[b]pyridine-3-carbonitirle]	0.472 µM	> 5 µM	0.074 µM			
C=CC(=O)N1CC2(CCN(c3nc4cc(-c5nccs5)cn4c(-c4c(C)ccc5[nH]ncc45)c3C#N)C2)C1 [Example 1-54]	0.976 µM	> 5 µM	0.122 µM			
C=CC(=O)N1CC2(CCN(c3nc4c(c(-c5cccc(C)c5Cl)c3C#N)COC(C)(C)C4)C2)C1 [Example 13-152, 4-(2-chloro-3-methylphenyl)-7,7-dimethyl-2-(2-(2-propenoyl)-2,6-diazaspiro[3.4]octan-6-yl)-7,8-dihydro-5H-pyrano[4,3-b]pyridine-3-carbonitrile]	1.93 µM	9.05 µM	0.787 µM			
C=CC(=O)N1CC2(CCN(c3nc4c(c(-c5cc(O)cc6ccccc56)c3C#N)[C@H]3CC[C@@H]4C3)C2)C1 (single isomer, unassigned) [Example 2-39]			0.009 µM		0.068 µM	> 5 µM
C=CC(=O)N1CC2(CCN(c3nc4c(c(-c5ccccc5F)c3C#N)CCN(c3scnc3C)C4)C2)C1 [Example 21-1, 4-(2-fluorophenyl)-7-(4-methyl-1,3-thiazol-5-yl)-2-(2-(2-propenoyl)-2,6-diazaspiro[3.4]octan-6-yl)-5,6,7,8-tetrahydro-1,7-naphthyridine-3-carbonitrile]	0.327 µM	> 5 µM		0.041 µM		
C=CC(=O)N1CC2(CCN(c3nc4c(c(-c5cccc6cc(O)ccc56)c3C)CCN(C)C4)C2)C1 [Example 18-6, 1-(6-(4-(6-hydroxy-1-naphthalenyl)-3,7-dimethyl-5,6,7,8-tetrahydro-1,7-naphthyridin-2-yl)-2,6-diazaspiro[3.4]octan-2-yl)-2-propen-1-one]	0.07 µM	> 5 µM		0.08 µM		
C=CC(=O)N1CC2(CCN(c3nc4c(c(-c5c(C)c(Cl)cc6cnn(C)c56)c3C)COC(C)(C)C4)C2)C1 (single isomer, unassigned) [Example 14-89, (P)-1-(6-(4-(5-chloro-1,6-dimethyl-1H-indazol-7-yl)-3,7,7-trimethyl-7,8-dihydro-5H-pyrano[4,3-b]pyridin-2-yl)-2,6-diazaspiro[3.4]octan-2-yl)-2-propen-1-one]	0.08 µM	1.8 µM		0.081 µM		
C=CC(=O)N1CC2(CCN(c3nc4cc(-c5scnc5C)ccc4c(-c4ccccc4F)c3C#N)C2)C1 [Example 20-2, 4-(2-fluorophenyl)-7-(4-methyl-1,3-thiazol-5-yl)-2-(2-(2-propenoyl)-2,6-diazaspiro[3.4]octan-6-yl)-3-quinolinecarbonitrile]	1.44 µM	> 5 µM		0.146 µM		
C=CC(=O)N1CC2(CCN(c3nc4c(ccn4C)c(-c4c(C)ccc5[nH]ncc45)c3C#N)C2)C1 [Example 1-50, 1-methyl-4-(5-methyl-1H-indazol-4-yl)-6-(2-(2-propenoyl)-2,6-diazaspiro[3.4]octan-6-yl)-1H-pyrrolo[2,3-b]pyridine-5-carbonitrile]	> 5 µM	> 5 µM	0.498 µM			
C=CC(=O)N1CC2(CCN(c3nc4cc(-n5cncc5C)ccc4c(-c4ccccc4F)c3C#N)C2)C1 [Example 17-6, 4-(2-fluorophenyl)-7-(5-methyl-1H-imidazol-1-yl)-2-(2-(2-propenoyl)-2,6-diazaspiro[3.4]octan-6-yl)-3-quinolinecarbonitrile]	2.19 µM	4.37 µM		0.149 µM		
C=CC(=O)N1CC2(CCN(c3nc4c(c(-c5ccccc5Cl)c3C#N)CCN(c3scnc3C)C4)C2)C1 [Example 21-11]	0.633 µM	4.41 µM		0.033 µM		
C=CC(=O)N1CC2(CCN(c3nc4c(c(-c5c(C)ccc6c(Cl)c[nH]c56)c3C#N)COC(C)(C)C4)C2)C1 [Example 12-20, 4-(3-chloro-6-methyl-1H-indol-7-yl)-7,7-dimethyl-2-(2-(2-propenoyl)-2,6-diazaspiro[3.4]octan-6-yl)-7,8-dihydro-5H-pyrano[4,3-b]pyridine-3-carbonitrile]	2.57 µM	> 5 µM	0.105 µM			
C=CC(=O)N1CC2(CCN(c3nc4cc(-c5scnc5C)ccc4c(-c4c(O)cccc4F)c3C#N)C2)C1 (single isomer, unassigned) [Example 19-4, (P)-4-(2-fluoro-6-hydroxyphenyl)-7-(4-methyl-1,3-thiazol-5-yl)-2-(2-(2-propenoyl)-2,6-diazaspiro[3.4]octan-6-yl)-3-quinolinecarbonitrile]		> 5 µM		0.038 µM	0.695 µM	
C=CC(=O)N1CC2(CCN(c3nc4c(c(-c5c(C)ccc6cnn(C)c56)c3C#N)CCC(C)(C)C4)C2)C1 [Example 13-143, 4-(1,6-dimethyl-1H-indazol-7-yl)-7,7-dimethyl-2-(2-(2-propenoyl)-2,6-diazaspiro[3.4]octan-6-yl)-5,6,7,8-tetrahydro-3-quinolinecarbonitrile]	0.602 µM	> 5 µM	0.033 µM			
C=CC(=O)N1CC2(CCN(c3nc4c(c(-c5cc(O)ccc5C)c3C#N)[C@@H]3CC[C@H]4C3)C2)C1 (single isomer, unassigned) [Example 14-11]	0.149 µM	> 5 µM	0.038 µM			
C=CC(=O)N1CC2(CCN(c3nc4c(c(-c5cccc6cc(O)ccc56)c3C)COC(C)(C)C4)C2)C1 (single isomer, unassigned) [Example 14-44, (P)-1-(6-(4-(6-hydroxy-1-naphthalenyl)-3,7,7-trimethyl-7,8-dihydro-5H-pyrano[4,3-b]pyridin-2-yl)-2,6-diazaspiro[3.4]octan-2-yl)-2-propen-1-one]	0.044 µM	> 5 µM		0.071 µM		
C=CC(=O)N1CC2(CCN(c3nc4c(c(-c5cccc6cc(O)ccc56)c3C#N)COC(C)(C)C4)C2)C1 [Example 12-41, 4-(6-hydroxy-1-naphthalenyl)-7,7-dimethyl-2-(2-(2-propenoyl)-2,6-diazaspiro[3.4]octan-6-yl)-7,8-dihydro-5H-pyrano[4,3-b]pyridine-3-carbonitrile]	0.502 µM	> 5 µM	0.11 µM			
C=CC(=O)N1CC2(CCN(c3nc4c(OC)cccc4c(-c4c(C)ccc5[nH]ncc45)c3C#N)C2)C1 [Example 14-47, 8-methoxy-4-(5-methyl-1H-indazol-4-yl)-2-(2-(2-propenoyl)-2,6-diazaspiro[3.4]octan-6-yl)-3-quinolinecarbonitrile]	> 5 µM	> 5 µM		0.482 µM		
C=CC(=O)N1CC2(CCN(c3nc4c(c(-c5cc(O)ccc5Cl)c3C)CCN(C3CCCN(C)C3)C4)C2)C1 [Example 18-11, 1-(6-(4-(2-chloro-5-hydroxyphenyl)-3-methyl-7-((3R)-1-methyl-3-piperidinyl)-5,6,7,8-tetrahydro-1,7-naphthyridin-2-yl)-2,6-diazaspiro[3.4]octan-2-yl)-2-propen-1-one|1-(6-(4-(2-chloro-5-hydroxyphenyl)-3-methyl-7-((3S)-1-methyl-3-piperidinyl)-5,6,7,8-tetrahydro-1,7-naphthyridin-2-yl)-2,6-diazaspiro[3.4]octan-2-yl)-2-propen-1-one]	0.174 µM	> 5 µM		0.167 µM		
